Test results as given in patent US9221791B2, “Metalloenzyme inhibitor compounds” (Viamet Pharmaceuticals, Inc., priority 2011, dated 2015).
≈ marks a conversion by molar mass, not a printed value.

Experiments:
[1] = system: Septoria tritici (ATCC 26517); test: Minimum Inhibitory Concentration (MIC) (Septoria tritici), CLSI-based microdilution; format: cell-based; details: Zymoseptoria tritici, ATCC26517, 168 h, S. tritici ATCC 26517; 22° C. for seven days; 50% reduction in growth; read-out: Septoria Rating (MIC)
Experimental: C. Minimum Inhibitory Concentration (MIC) (Septoria tritici)
Compounds of the present disclosure were assessed for their ability to inhibit the growth of a common strain of the fungal plant pathogen Septoria tritici (ATCC 26517) using a procedure based on a Clinical and Laboratory Standards Institute (CLSI) microdilution assay protocol for filamentous fungi.
Stock solutions of the test compounds and standards were prepared in DMSO at 6400 μg/mL. Each stock solution was used to prepare a 2-fold dilution series ranging from 16 to 0.016 μg/mL (total of 11 compound concentrations) in RPMI-1640 (Roswell Park Memorial Institute) medium containing 3-(N-morpholino)propanesulfonic acid (MOPS) buffer and 2% DMSO. A 100 μL aliquot of the dilutions was added to columns 1 (16 μg/mL compound) through 11 (0.016 μg/mL compound) of a 96-well microtiter plate. This format was replicated in a second row of the microtiter plate. Thus, each microtiter plate could include 11 concentrations of four test or control compounds replicated twice. A 100 μL aliquot of RPMI-1640/MOPS/2% DMSO medium was added to column 12 (no compound control) of the microtiter plate.
A fresh culture of S. tritici was used to prepare a solution of approximately 5×10^4 colony-forming units per milliliter (cfu/mL) in RPMI/MOPS medium without DMSO. A 100 µL aliquot of this solution was added to all 96 wells in the microtiter plate. […] The assay plates were incubated at 22° C. for seven days in the dark without shaking.
In each case of Table 3 the Septoria rating scale is as follows: […]

[2] = system: Puccinia recondita tritici = Puccinia triticina; test: Fungicidal activity vs. leaf rust on wheat plants; format: in vivo; details: wheat (variety Yuma) sprayed at 50 ppm, inoculated on the following day, evaluated 7-9 days later; read-out: Puccinia Rating (% Disease Control @ 50 ppm)
From the text: D. Evaluation of Fungicidal Activity Vs. Leaf Rust (Causal Agent Puccinia recondita tritici=Puccinia triticina; Bayer Code PUCCRT). […] Each pot contained 3-8 seedlings. These plants were sprayed until wet with the formulated test compounds. The compounds were formulated at 50 ppm in 10 vol. % acetone plus 90 vol. % Triton X water (deionized water 99.99 wt %+0.01 wt % Triton X100), giving a “formulated test compound.” Formulated test compounds were applied to plants using a turn table sprayer fitted with two opposing air atomization nozzles which delivered approximately 1500 L/ha of spray volume. On the following day, the leaves were inoculated with an aqueous spore suspension of Puccinia recondita tritici and the plants were kept in high humidity overnight to permit spores to germinate and infect the leaf. The plants were then transferred to a greenhouse until disease developed on untreated control plants. Disease severity was evaluated 7-9 days later, depending on the speed of disease development. In each case of Table 3, the Puccinia rating scale is as follows: […]

Row | MIC [1] | Structure (SMILES) | pest or weed control at 50 ppm [2]
1 | ≤ 0.5 µg/mL | OC(Cn1cnnn1)(c1ccc(F)cc1F)C(F)(F)c1ccc(-c2ccc(C(F)F)s2)cn1 (stereo not drawn) [Compound 33, 1-(5-(5-(Difluoromethyl)thiophen-2-yl)pyridin-2-yl)-2-(2,4-difluorophenyl)-1,1-difluoro-3-(1H-tetrazol-1-yl)propan-2-ol] | 80 to 100%
2 | 1.5 µg/mL (≈ 2.98 µM) | OC(Cn1cnnn1)(c1ccc(F)cc1F)C(F)(F)c1ccc(-c2ccc(C(F)(F)F)s2)cn1 (stereo not drawn) [Compound 34, 2-(2,4-Difluorophenyl)-1,1-difluoro-3-(1H-tetrazol-1-yl)-1-(5-(5-(trifluoromethyl)thiophen-2-yl)pyridin-2-yl)propan-2-ol] | 80 to 100%
3 | ≤ 0.5 µg/mL | OC(Cn1cnnn1)(c1ccc(F)cc1F)C(F)(F)c1ccc(-c2nccs2)cn1 (stereo not drawn) [Compound 38, 2-(2,4-Difluorophenyl)-1,1-difluoro-3-(1H-tetrazol-1-yl)-1-(5-(thiazol-2-yl)pyridin-2-yl)propan-2-ol] | 80 to 100%
4 | ≤ 0.5 µg/mL | OC(Cn1cnnn1)(c1ccc(Cl)cc1F)C(F)(F)c1ccc(CC(F)(F)F)cn1 (stereo not drawn) [Compound 39, 2-(4-Chloro-2-fluorophenyl)-1,1-difluoro-3-(1H-tetrazol-1-yl)-1-(5-(2,2,2-trifluoroethyl)pyridin-2-yl)propan-2-ol] | 80 to 100%
5 | ≤ 0.5 µg/mL | OC(Cn1cnnn1)(c1ccc(Cl)cc1F)C(F)(F)c1ccc(C2CC2)cn1 (stereo not drawn) [Compound 40, 2-(4-Chloro-2-fluorophenyl)-1-(5-cyclopropylpyridin-2-yl)-1,1-difluoro-3-(1H-tetrazol-1-yl)propan-2-ol] | 80 to 100%
6 | ≤ 0.5 µg/mL | OC(Cn1cnnn1)(c1ccc(F)cc1F)C(F)(F)c1ccc(CCCOCC(F)(F)F)cn1 (stereo not drawn) [Compound 45, 2-(2,4-Difluorophenyl)-1,1-difluoro-3-(1H-tetrazol-1-yl)-1-(5-(3-(2,2,2-trifluoroethoxy)propyl)pyridin-2-yl)propan-2-ol] | 80 to 100%
7 | ≤ 0.5 µg/mL | CCOC/C=C/c1ccc(C(F)(F)C(O)(Cn2cnnn2)c2ccc(F)cc2F)nc1 (stereo not drawn) [Compound 51, (E)-2-(2,4-Difluorophenyl)-1-(5-(3-ethoxyprop-1-en-1-yl)pyridin-2-yl)-1,1-difluoro-3-(1H-tetrazol-1-yl)propan-2-ol] | < 40%
8 | ≤ 0.5 µg/mL | CCOC/C=C\c1ccc(C(F)(F)C(O)(Cn2cnnn2)c2ccc(F)cc2F)nc1 (stereo not drawn) [Compound 52, (Z)-2-(2,4-Difluorophenyl)-1-(5-(3-ethoxyprop-1-en-1-yl)pyridin-2-yl)-1,1-difluoro-3-(1H-tetrazol-1-yl)propan-2-ol] | < 40%
9 | ≤ 0.5 µg/mL | CCOCCCc1ccc(C(F)(F)C(O)(Cn2cnnn2)c2ccc(F)cc2F)nc1 (stereo not drawn) [Compound 53, 2-(2,4-Difluorophenyl)-1-(5-(3-ethoxypropyl)pyridin-2-yl)-1,1-difluoro-3-(1H-tetrazol-1-yl)propan-2-ol] | 80 to 100%
10 | 1.5 µg/mL (≈ 3.32 µM) | CC(C)OC/C=C/c1ccc(C(F)(F)C(O)(Cn2cnnn2)c2ccc(F)cc2F)nc1 (stereo not drawn) [Compound 54, (E)-2-(2,4-Difluorophenyl)-1,1-difluoro-1-(5-(3-isopropoxyprop-1-en-1-yl)pyridin-2-yl)-3-(1H-tetrazol-1-yl)propan-2-ol] | < 40%
11 | ≤ 0.5 µg/mL | OC(Cn1cnnn1)(c1ccc(F)cc1F)C(F)(F)c1ccc(CC2CC2)cn1 (stereo not drawn) [Compound 59, 1-(5-(Cyclopropylmethyl)pyridin-2-yl)-2-(2,4-difluorophenyl)-1,1-difluoro-3-(1H-tetrazol-1-yl)propan-2-ol] | 80 to 100%
12 | ≤ 0.5 µg/mL | OC(Cn1cnnn1)(c1ccc(Cl)cc1F)C(F)(F)c1ccc(CC2CC2)cn1 (stereo not drawn) [Compound 60, 2-(4-Chloro-2-fluorophenyl)-1-(5-(cyclopropylmethyl)pyridin-2-yl)-1,1-difluoro-3-(1H-tetrazol-1-yl)propan-2-ol] | 80 to 100%
13 | ≤ 0.5 µg/mL | O=C(c1ccc(C(F)(F)F)cc1)c1ccc(C(F)(F)C(O)(Cn2cnnn2)c2ccc(F)cc2F)nc1 (stereo not drawn) [Compound 66, (6-(2-(2,4-Difluorophenyl)-1,1-difluoro-2-hydroxy-3-(1H-tetrazol-1-yl)propyl)pyridin-3-yl)(4-(trifluoromethyl)phenyl)methanone] | 80 to 100%
14 | ≤ 0.5 µg/mL | O=C(c1ccc(Cl)cc1)c1ccc(C(F)(F)C(O)(Cn2cnnn2)c2ccc(F)cc2F)nc1 (stereo not drawn) [Compound 67, (4-Chlorophenyl)(6-(2-(2,4-difluorophenyl)-1,1-difluoro-2-hydroxy-3-(1H-tetrazol-1-yl)propyl)pyridin-3-yl)methanone] | 80 to 100%
15 | ≤ 0.5 µg/mL | O=C(c1ccc(OCC(F)(F)F)cc1)c1ccc(C(F)(F)C(O)(Cn2cnnn2)c2ccc(F)cc2F)nc1 (stereo not drawn) [Compound 68, (6-(2-(2,4-Difluorophenyl)-1,1-difluoro-2-hydroxy-3-(1H-tetrazol-1-yl)propyl)pyridin-3-yl)(4-(2,2,2-trifluoroethoxy)phenyl)methanone] | 80 to 100%
16 | ≤ 0.5 µg/mL | O=C(c1ccc(F)cc1)c1ccc(C(F)(F)C(O)(Cn2cnnn2)c2ccc(F)cc2F)nc1 (stereo not drawn) [Compound 69, (6-(2-(2,4-Difluorophenyl)-1,1-difluoro-2-hydroxy-3-(1H-tetrazol-1-yl)propyl)pyridin-3-yl)(4-fluorophenyl)methanone] | 80 to 100%
17 | ≤ 0.5 µg/mL | O=C(c1ccc(C(F)(F)C(O)(Cn2cnnn2)c2ccc(F)cc2F)nc1)c1ccc(Cl)c(F)c1 (stereo not drawn) [Compound 71, (4-Chloro-3-fluorophenyl)(6-(2-(2,4-difluorophenyl)-1,1-difluoro-2-hydroxy-3-(1H-tetrazol-1-yl)propyl)pyridin-3-yl)methanone] | 80 to 100%
18 | ≤ 0.5 µg/mL | OC(Cn1cnnn1)(c1ccc(F)cc1F)C(F)(F)c1ccc(Cc2ccc(C(F)(F)F)cc2)cn1 (stereo not drawn) [Compound 73, 2-(2,4-Difluorophenyl)-1,1-difluoro-3-(1H-tetrazol-1-yl)-1-(5-(4-(trifluoromethyl)benzyl)pyridin-2-yl)propan-2-ol] | 80 to 100%
19 | ≤ 0.5 µg/mL | OC(Cn1cnnn1)(c1ccc(F)cc1F)C(F)(F)c1ccc(Cc2ccccc2)cn1 (stereo not drawn) [Compound 75, 1-(5-Benzylpyridin-2-yl)-2-(2,4-difluorophenyl)-1,1-difluoro-3-(1H-tetrazol-1-yl)propan-2-ol] | 80 to 100%
20 | ≤ 0.5 µg/mL | OC(Cn1cnnn1)(c1ccc(F)cc1F)C(F)(F)c1ccc(Cc2ccc(OC(F)(F)F)cc2)cn1 (stereo not drawn) [Compound 76, 2-(2,4-Difluorophenyl)-1,1-difluoro-3-(1H-tetrazol-1-yl)-1-(5-(4-(trifluoromethoxy)benzyl)pyridin-2-yl)propan-2-ol] | 80 to 100%
21 | ≤ 0.5 µg/mL | OC(Cn1cnnn1)(c1ccc(F)cc1F)C(F)(F)c1ccc(Cc2ccc(Cl)cc2)cn1 (stereo not drawn) [Compound 77, 1-(5-(4-Chlorobenzyl)pyridin-2-yl)-2-(2,4-difluorophenyl)-1,1-difluoro-3-(1H-tetrazol-1-yl)propan-2-ol] | 80 to 100%
22 | ≤ 0.5 µg/mL | N#Cc1ccc(OCc2ccc(C(F)(F)C(O)(Cn3cnnn3)c3ccc(F)cc3F)nc2)cc1 (stereo not drawn) [Compound 79, 4-((6-(2-(2,4-Difluorophenyl)-1,1-difluoro-2-hydroxy-3-(1H-tetrazol-1-yl)propyl)pyridin-3-yl)methoxy)benzonitrile] | 80 to 100%
23 | ≤ 0.5 µg/mL | OC(Cc1cnco1)(c1ccc(F)cc1F)C(F)(F)c1ccc(Br)cn1 (stereo not drawn) [Compound 83, 1-(5-Bromopyridin-2-yl)-2-(2,4-difluorophenyl)-1,1-difluoro-3-(oxazol-5-yl)propan-2-ol] | 80 to 100%
24 | ≤ 0.5 µg/mL | N#Cc1ccc(OCc2ccc(C(F)(F)C(O)(Cn3cnnn3)c3ccc(F)cc3F)nc2)c(F)c1 (stereo not drawn) [Compound 88, 4-((6-(2-(2,4-difluorophenyl)-1,1-difluoro-2-hydroxy-3-(1H-tetrazol-1-yl)propyl)pyridin-3-yl)methoxy)-3-fluorobenzonitrile] | 80 to 100%
